Data: ChEMBL document CHEMBL1201862, “PubChem BioAssay data set” (2004)
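Exposure lasted 48 hours, with cells grown in 96-well plates and compounds tested at five concentrations. GI50 is the concentration that inhibits growth by half.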 Active and inactive are the calls of the source. No stated cut-off is given here; in the data, active = GI50 up to about 1.1 µM and inactive = higher.

Key:
Test in all cases: growth of human tumour cells (NCI), 48 h
[1] = test system: SK-OV-3
[2] = test system: K562
[3] = test system: IGROV-1
[4] = test system: COLO 205
[5] = test system: 786-0
[6] = test system: OVCAR-4
[7] = test system: UACC-257
[8] = test system: HT-29
[9] = test system: OVCAR-8
[10] = test system: KM12
[11] = test system: SF-295
[12] = test system: HCC 2998
[13] = test system: CAKI-1
[14] = test system: RXF 631
[15] = test system: HCT-116
[16] = test system: HL-60
[17] = test system: CCRF-CEM
[18] = test system: DLD-1
[19] = test system: SR
[20] = test system: RPMI-8226
[21] = test system: XF498
[22] = test system: SNB-19
[23] = test system: LOX IMVI
[24] = test system: UO-31
[25] = test system: DMS-114
[26] = test system: ACHN
[27] = test system: KM-20L2
[28] = test system: HOP-92
[29] = test system: SF-268
[30] = test system: A549
[31] = test system: OVCAR-3
[32] = test system: MOLT-4
[33] = test system: SN12C
[34] = test system: DMS-273
[35] = test system: SK-MEL-5
[36] = test system: U-251
[37] = test system: Malme-3M
[38] = test system: M14
[39] = test system: SNB-75
[40] = test system: HCT-15
[41] = test system: SNB-78
[42] = test system: OVCAR-5
[43] = test system: SW-620
[44] = test system: SF-539
[45] = test system: HOP-18
[46] = test system: HOP-62
[47] = test system: NCI-H522
[48] = test system: M19-MEL
[49] = test system: A498
[50] = test system: LXFL 529
[51] = test system: SK-MEL-28
[52] = test system: NCI-H226
[53] = test system: UACC-62
[54] = test system: EKVX
[55] = test system: NCI-H23
[56] = test system: BT-549
[57] = test system: MDA-MB-435
[58] = test system: NCI/ADR-RES
[59] = test system: PC-3
[60] = test system: RXF 393
[61] = test system: MCF7
[62] = test system: SK-MEL-2
[63] = test system: T47D
[64] = test system: MDA-MB-231
[65] = test system: NCI-H460
[66] = test system: DU-145
[67] = test system: MDA-N
[68] = test system: TK-10
[69] = test system: Hs-578T

## O=C(O)/C(Cl)=C(\Cl)C(=O)NC1C2CC3CC(C2)CC1C3 (centres undefined)
[1]
  GI50: > 100 µM (inactive)
[2]
  GI50: > 100 µM (inactive)
[3]
  GI50: > 100 µM (inactive)
[4]
  GI50: > 100 µM (inactive)
[5]
  GI50: > 100 µM (inactive)
[6]
  GI50: > 100 µM (inactive)
[7]
  GI50: > 100 µM (inactive)
[8]
  GI50: > 100 µM (inactive)
[9]
  GI50: > 100 µM (inactive)
[10]
  GI50: 9.64 µM (inactive)
[11]
  GI50: > 100 µM (inactive)
[12]
  GI50: > 100 µM (inactive)
[13]
  GI50: > 100 µM (inactive)
[14]
  GI50: 61 µM (inactive)
[15]
  GI50: > 100 µM (inactive)
[16]
  GI50: > 100 µM (inactive)
[17]
  GI50: > 100 µM (inactive)
[18]
  GI50: > 100 µM (inactive)
[19]
  GI50: > 100 µM (inactive)
[20]
  GI50: > 100 µM (inactive)
[21]
  GI50: > 100 µM (inactive)
[22]
  GI50: > 100 µM (inactive)
[23]
  GI50: > 100 µM (inactive)
[24]
  GI50: > 100 µM (inactive)
[25]
  GI50: > 100 µM (inactive)
[26]
  GI50: > 100 µM (inactive)
[27]
  GI50: > 100 µM (inactive)
[28]
  GI50: > 100 µM (inactive)
[29]
  GI50: > 100 µM (inactive)
[30]
  GI50: > 100 µM (inactive)
[31]
  GI50: > 100 µM (inactive)
[32]
  GI50: > 100 µM (inactive)
[33]
  GI50: > 100 µM (inactive)
[34]
  GI50: > 100 µM (inactive)
[35]
  GI50: > 100 µM (inactive)
[36]
  GI50: > 100 µM (inactive)
[37]
  GI50: > 100 µM (inactive)
[38]
  GI50: > 100 µM (inactive)
[39]
  GI50: > 100 µM (inactive)
[40]
  GI50: > 100 µM
[41]
  GI50: > 100 µM (inactive)
[42]
  GI50: > 100 µM (inactive)
[43]
  GI50: > 100 µM (inactive)
[44]
  GI50: > 100 µM (inactive)
[45]
  GI50: > 100 µM (inactive)
[46]
  GI50: > 100 µM (inactive)
[47]
  GI50: > 100 µM (inactive)
[48]
  GI50: > 100 µM (inactive)
[49]
  GI50: > 100 µM (inactive)
[50]
  GI50: > 100 µM (inactive)
[51]
  GI50: > 100 µM (inactive)
[52]
  GI50: > 100 µM (inactive)
[53]
  GI50: > 100 µM (inactive)
[54]
  GI50: > 100 µM (inactive)
[55]
  GI50: > 100 µM (inactive)

## CC1(C)C(=O)/C=C\C(=O)C(C)(C)C2=CC=C(O2)C(C)(C)C(=O)C(Br)C(Br)C(=O)C(C)(C)C2=CC=C1O2 (centres undefined)
[1]
  GI50: > 100 µM (inactive)
[2]
  GI50: 5.19 µM (inactive)
[56]
  GI50: 21.7 µM (inactive)
[3]
  GI50: > 52.6 µM (inactive)
[4]
  GI50: > 81.8 µM (inactive)
[57]
  GI50: 34.4 µM (inactive)
[5]
  GI50: 39.6 µM (inactive)
[58]
  GI50: 23.2 µM (inactive)
[6]
  GI50: > 74.5 µM (inactive)
[7]
  GI50: 83.8 µM (inactive)
[8]
  GI50: 41.8 µM (inactive)
[9]
  GI50: 12 µM (inactive)
[10]
  GI50: 71.8 µM (inactive)
[11]
  GI50: > 100 µM (inactive)
[12]
  GI50: > 100 µM (inactive)
[13]
  GI50: 58.6 µM (inactive)
[59]
  GI50: > 100 µM (inactive)
[14]
  GI50: > 100 µM (inactive)
[15]
  GI50: 17.9 µM (inactive)
[16]
  GI50: 4.76 µM (inactive)
[60]
  GI50: 31.3 µM (inactive)
[17]
  GI50: 1.93 µM (inactive)
[18]
  GI50: 13.6 µM (inactive)
[19]
  GI50: 2.12 µM (inactive)
[20]
  GI50: 2.58 µM (inactive)
[61]
  GI50: 33.6 µM (inactive)
[21]
  GI50: > 67.5 µM (inactive)
[62]
  GI50: 99.1 µM (inactive)
[22]
  GI50: > 100 µM (inactive)
[63]
  GI50: > 81.7 µM (inactive)
[23]
  GI50: 23 µM (inactive)
[24]
  GI50: > 92.3 µM (inactive)
[25]
  GI50: > 31.6 µM (inactive)
[26]
  GI50: > 46.5 µM (inactive)
[27]
  GI50: > 100 µM (inactive)
[28]
  GI50: > 21.5 µM (inactive)
[29]
  GI50: > 66.5 µM (inactive)
[30]
  GI50: > 100 µM (inactive)
[31]
  GI50: 29.9 µM (inactive)
[32]
  GI50: 3.3 µM (inactive)
[64]
  GI50: 27.4 µM (inactive)
[33]
  GI50: > 80 µM (inactive)
[65]
  GI50: > 100 µM (inactive)
[34]
  GI50: 33.3 µM (inactive)
[35]
  GI50: 45 µM (inactive)
[66]
  GI50: > 100 µM (inactive)
[36]
  GI50: 41.4 µM (inactive)
[37]
  GI50: 49.9 µM (inactive)
[38]
  GI50: 58.7 µM (inactive)
[67]
  GI50: > 45 µM (inactive)
[39]
  GI50: 51.6 µM (inactive)
[40]
  GI50: 53.1 µM
[41]
  GI50: 41.8 µM (inactive)
[42]
  GI50: > 100 µM (inactive)
[68]
  GI50: > 100 µM (inactive)
[43]
  GI50: 7.4 µM (inactive)
[44]
  GI50: > 68.9 µM (inactive)
[45]
  GI50: > 100 µM (inactive)
[46]
  GI50: > 100 µM (inactive)
[47]
  GI50: 21.8 µM (inactive)
[69]
  GI50: 30.1 µM (inactive)
[48]
  GI50: 53.7 µM (inactive)
[49]
  GI50: > 100 µM (inactive)
[50]
  GI50: 27.9 µM (inactive)
[51]
  GI50: 76.7 µM (inactive)
[52]
  GI50: > 100 µM (inactive)
[53]
  GI50: 24 µM (inactive)
[54]
  GI50: > 100 µM (inactive)
[55]
  GI50: 48.5 µM (inactive)
